Structures can show the parent of a compound that is named as a salt.

The assay has as its system von Bezold-Jarisch reflex evoked by 5-HT. Put plainly: Antagonism of the von Bezold-Jarisch reflex evoked by 5-HT in the anesthetized rat. It is filed as in vivo. To be noted: iv, urethane-anesthetized male rats, submaximal 5-HT (usually 6 μg/kg i.v.), heart rate changes, read-out: ED50 (dose required to reduce the 5-HT-evoked response to 50% of the control response). On the procedure: Antagonism of the von Bezold-Jarisch reflex
The compounds were evaluated for antagonism of the von Bezold-Jarisch reflex evoked by 5-HT in the anesthetized rat according to the following method
Male rats 250-350 g, were anesthetized with urethane (1.25 g/kg intraperitoneally) and blood pressure and heart rate recorded as described by Fozard J. R. et al., J. Cardiovasc Pharmacol 2, 229-245 (1980). A submaximal dose of 5-HT (usually 6 μg/kg) was given repeatedly by the intravenous route and changes in heart rate quantified Compounds were given intravenously and the concentration required to reduce the 5-HT-evoked response to 50% of the control response (ED50) was then determined.
The ED50 is the midpoint of the dose-response relation. Regarding `CCc1nc(C(=O)NC2CC3CCCC(C2)N3C)c2ccccn12` (centres unmarked) [Compound 8], the 50% effective dose (ED50) was 0.5 µg/kg.
Regarding `CN1C2CCC1CC(NC(=O)C1=CC(C)(C)c3ccccc31)C2` (stereo not drawn) [Compound 13, (endo)-N-(8-Methyl-8-azabicyclo[3.2.11]octan-3-yl)-3,3-dimethylindene-1-carboxamide monohydrochloride], the 50% effective dose (ED50) turned out to be 1.1 µg/kg.
Next, `CN1C2CCC1CC(NC(=O)c1ccc3cccccc1-3)C2` (stereo not drawn) [Compound 17, (endo)-N-(8-Methyl-8-azabicyclo[3.2.1]octan-3-yl)azulene-1-carboxamide]: 13 µg/kg; `CCc1cc(C(=O)NC2CC3CCC(C2)N3C)c2ccccn12` (stereo not drawn) [Compound 2, (endo)-N-(8-Methyl-8-azabicyclo[3.2.1]oct-3-yl)-3-ethylindolizin-1-carboxamide]: 0.24 µg/kg.
Consider `CCc1nc(C(=O)NC2CC3CCC(C2)N3C)c2ccccn12` (stereo not drawn) [Compound 9, (endo)-N-(8-Methyl-8-azabicyclo[3,2,1]oct-3-yl)-3ethylimidazo[1,5-a]plyridin-1-carboxamide], for which the ED50 came to 1 µg/kg.

(Values after US4882327A, “Certain heterocyclic N-substituted carboxamides” (Beecham Group p.l.c., priority 1987, dated 1989).)
